Patent publication US20260000658A1, “METHODS FOR THE TREATMENT OF PROLIFERATIVE GLOMERULONEPHRITIS” (INSTITUT NATIONAL DE LA SANTÉ ET DE LA RECHERCHE MÉDICALE, priority 2022, published 2026)

Legend:
Type in all cases: in vivo, mouse
[1] = system: MRL-lpr mice; test: MRL-lpr mice, 12 weeks old, treated for 4 weeks
Method: (§1) For the uninephrectomy experiments, the right kidneys were removed under anesthesia. For the medical treatment of mice, 50 mg kg −1 alpelisib (MedChem Tronica) in 1% carboxymethylcellulose (Sigma Aldrich)+0.5% Tween (Sigma Aldrich) or vehicle (1% carboxymethylcellulose+0.5% Tween) was administered by oral gavage daily for the indicated periods of time. Blood and urines were obtained at the indicated times. At euthanasia, blood, urines, kidneys were harvested. In some experiments, spleens, hearts, and bone marrow (BM) in femurs and tibias were harvested as well. Tissues were fixed in 4% paraformaldehyde and paraffin embedded for immunohistochemical analysis, snap-frozen in Optimal Cutting Temperature (OCT), or stored at −80° C. for mRNA or protein analysis.
(§2) Mouse blood counts were analyzed using a hematology analyzer (ProCyte Dx; IDEXX Laboratories). Mouse serum creatinine, blood urea nitrogen, urinary albumin, and urinary creatinine were evaluated using an AU5800 (Beckman Coulter) autoanalyzer. Serum anti-dsDNA measurement was performed according to the manufacturer's instruction using mouse anti-dsDNA ELISA kit (LBIS). The absorbance was measured using Ininite M Nano (TECAN).
(§3) 4-μm kidney sections were stained with periodic acid-Schiff (PAS), Masson's Trichrome (MT), Periodic acid metenamine silver (PAM) or Hematoxylin and Eosin (HE) staining for histological analysis. The degree of glomerular lesions was evaluated using the following scoring system: 0=no lesion, 1=affecting up to 25% of the glomerulus, 2=affecting 25-50% of the glomerulus, 3=affecting 50-75% of the glomerulus, and 4=affecting 75-100%. At least 50 glomeruli per sample were measured for each analysis. An indirect immunoperoxidase method was used for immunohistochemistry. Briefly, after deparaffinization, antigen retrieval was performed with citrate buffer (pH6) or Tris-EDTA buffer (pH9 or pH6) using microwave or high temperature (95° C.). Endogenous peroxidase activity was quenched using 3% hydrogen peroxide; nonspecific protein binding was blocked using 2.5% normal horse serum (Vector Laboratories), and endogenous biotin activity was quenched using the Avidin/Biotin Blocking Kit (Vector Laboratories). When using mouse primary antibodies on mouse tissue, Klear mouse blocking reagent (Diagomics) was used to block endogenous mouse immunoglobulins. After blocking, the tissue sections were incubated with the primary antibodies overnight at 4° C. The following primary antibodies were used: rabbit anti-Ki67 antibody (SP6; Thermo Fisher Scientific), rabbit anti-P-S6RP antibody (D68F8; Cell Signaling Technology), mouse anti-P-AKT (Ser473) antibody (587F11; Cell Signaling Technology), rabbit anti-P-AKT (Thr308) antibody (C31E5E; Cell Signaling Technology), mouse anti-S6RP antibody (54E2; Cell Signaling Technology), chicken anti-GFP antibody (Abcam), guinea pig anti-Nephrin antibody (GP-N2; Progen), rabbit anti-Podocin antibody (P0372; Sigma Aldrich), mouse anti-WTI antibody (6F-H2; DAKO). The corresponding secondary antibodies including anti-mouse IgG, anti-rabbit IgG, anti-guinea pig IgG, biotinylated anti-rabbit IgG (Vector Laboratories), and biotinylated anti-mouse IgG (Vector Laboratories) were applied. For Avidin/Biotin detection, an R.T.U. Vectastain Kit (Vector Laboratories) or streptavidin (Thermo Fisher Scientific) was used. The immunoreactive antigens sites were detected with hydrogen peroxide and diaminobenzidine. For frozen immunofluorescent staining, frozen tissue sections (4 μm) were briefly air dried and fixed in 50% methanol/50% acetone. The sections were then blocked with 2.5% normal horse serum and incubated with primary antibodies: guinea pig anti-Nephrin antibody (GP-N2; Progen) overnight at 4° C. The sections were then incubated at room temperature for 40 min with secondary antibodies: fluorescein isothiocyanate-conjugated (FITC) anti-mouse IgG (Sigma Aldrich), FITC anti-mouse IgM (BD Biosciences), or FITC anti-mouse C3 antibody (abcam). […]

[2] = system: PIK3CA^Pod-HET mice; test: PIK3CA^Pod-HET mice treated orally with alpelisib
Method: as §1, §2
as §3, with “diaminobenzidine.” for “diaminobenzidine. For frozen immunofluorescent staining, frozen tissue sections (4 μm) were briefly air dried and fixed in 50% methanol/50% acetone. The sections were then blocked with 2.5% normal horse serum and incubated with primary antibodies: guinea pig anti-Nephrin antibody (GP-N2; Progen) overnight at 4° C. The sections were then incubated at room temperature for 40 min with secondary antibodies: fluorescein isothiocyanate-conjugated (FITC) anti-mouse IgG (Sigma Aldrich), FITC anti-mouse IgM (BD Biosciences), or FITC anti-mouse C3 antibody (abcam).”

[3] = system: PIK3CA^Pod-HO mice; test: PIK3CA^Pod-HO mice pilot study, vehicle or alpelisib; conditions: 3 months old
Method: as §1, §2
as §3, with “diaminobenzidine.” for “diaminobenzidine. For frozen immunofluorescent staining, frozen tissue sections (4 μm) were briefly air dried and fixed in 50% methanol/50% acetone. The sections were then blocked with 2.5% normal horse serum and incubated with primary antibodies: guinea pig anti-Nephrin antibody (GP-N2; Progen) overnight at 4° C. The sections were then incubated at room temperature for 40 min with secondary antibodies: fluorescein isothiocyanate-conjugated (FITC) anti-mouse IgG (Sigma Aldrich), FITC anti-mouse IgM (BD Biosciences), or FITC anti-mouse C3 antibody (abcam).”

[4] = 3 months old mice, oral, 2-3 weeks

For Cc1nc(NC(=O)N2CCC[C@H]2C(N)=O)sc1-c1ccnc(C(C)(C)C(F)(F)F)c1 [alpelisib, Alpelisib], the proteinuria ([1]; 12 weeks old females, 4 consecutive weeks) was “proteinuria reduction”, the “Cola1 and Cola3 mRNA expression” value ([1]; 12 weeks old, 4 weeks) was “improved” and the dsDNA antibodies ([1]; 12 weeks old, 4 weeks) was “significantly reduced”. For the same molecule, the “glomerular AKT/mTOR pathway” value ([1]; 12 weeks old, 4 weeks) was “inhibited”, the glomerular lesion score ([1]; 12 weeks old, 4 weeks) was “improved” and the “expression of podocyte differentiation markers” value ([1]; vs vehicle) was “increased”. The albuminuria [2, 4] was “progressive reduction in albuminuria”, the “glomerular AKT/mTOR pathway” value [2, 4] was “glomerular inhibition of the AKT/mTOR pathway” and the podocyte size [2, 4] was “podocyte size reduction”. The “gene expression anomalies (scRNA-seq)” value ([2]; alpelisib-treated PIK3CA^Pod-HET mice) was “correction of various gene expression anomalies”, the “podocyte populations (scRNA-seq of kidney cells)” value ([2]; alpelisib-treated, untreated PIK3CA^Pod-HET 23.7%, WT about 10%) was 11.7% and the albuminuria ([3]; 2 consecutive weeks) was “progressive albuminuria reduction”. The “AKT/mTOR pathway in podocytes” value ([3]; 2 weeks) was “blunted”, the “glomerulus proliferation (Ki67)” value ([3]; 2 weeks) was “decrease in glomerulus proliferation” and the “podocyte differentiation markers, protein levels” value ([3]; 2 weeks) was “still expressed”. The “glomeruli, kidney histological analysis” value ([3]; 2 weeks, vs vehicle) was “preserved glomeruli”.
